In ChEMBL document CHEMBL4350971, “Discovery of tropinone-thiazole derivatives as potent caspase 3/7 activators, and noncompetitive tyrosinase inhibitors with high antiproliferative activity: Rational design, one-pot tricomponent synthesis, and lipophilicity determination” (Eur J Med Chem, 2019):
Activity calls are given as the source filed them. The rule behind the calls is not given here.

T1: Tyrosinase (Agaricus bisporus, UniProt O42713)
T1 sequence (O42713 whole entry): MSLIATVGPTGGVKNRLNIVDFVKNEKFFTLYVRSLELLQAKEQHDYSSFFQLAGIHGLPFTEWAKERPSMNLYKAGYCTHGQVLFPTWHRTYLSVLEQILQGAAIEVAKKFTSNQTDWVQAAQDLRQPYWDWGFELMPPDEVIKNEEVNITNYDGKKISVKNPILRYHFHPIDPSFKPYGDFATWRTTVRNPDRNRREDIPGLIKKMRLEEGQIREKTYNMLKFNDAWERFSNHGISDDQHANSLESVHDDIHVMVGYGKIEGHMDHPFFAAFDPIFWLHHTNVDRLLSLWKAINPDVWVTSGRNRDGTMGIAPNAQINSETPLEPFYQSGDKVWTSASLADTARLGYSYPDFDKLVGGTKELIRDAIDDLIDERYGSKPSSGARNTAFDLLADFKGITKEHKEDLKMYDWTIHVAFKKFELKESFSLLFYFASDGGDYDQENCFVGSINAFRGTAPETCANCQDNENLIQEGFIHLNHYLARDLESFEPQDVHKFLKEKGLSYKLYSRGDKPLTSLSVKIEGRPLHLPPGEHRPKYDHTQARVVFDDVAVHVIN

T2: Tyrosinase (Agaricus bisporus) (UniProt O42713)
T2 sequence (whole entry): T1 sequence (O42713 whole entry)

B1: Tyrosinase (Agaricus bisporus), O42713 (protein)
chain: T1 sequence (O42713 whole entry)

Columns and labels:
[1] = tested on: MV4-11; assay: Antiproliferative activity against human MV4-11 cells incubated for 72 hrs by MTT assay; type: functional, cell-based; conditions: MV4-11, 72 h
[2] = tested on: A549; assay: Antiproliferative activity against human A549 cells incubated for 72 hrs by SRB assay; type: functional, cell-based; conditions: A549, 72 h
[3] = tested on: MCF7; assay: Antiproliferative activity against human MCF7 cells incubated for 72 hrs by SRB assay; type: functional, cell-based; conditions: MCF7, 72 h
[4] = tested on: B16-F10; assay: Antiproliferative activity against mouse B16F10 cells incubated for 72 hrs by MTT assay; type: functional, cell-based; conditions: B16-F10, 72 h
[5] = tested on: BALB/3T3; assay: Antiproliferative activity against mouse BALB/3T3 cells incubated for 72 hrs by SRB assay; type: cell-based; conditions: BALB/3T3, 72 h
[6] = tested on: A549; assay: Induction of apoptosis in human A549 cells assessed as fold increase in caspase 3/7 activation using Ac-DEVD-ACC as fluorogenic substrate at 5 ug/ml incubated for 72 hrs by fluorescence assay relative to control; type: functional
[7] = tested on: A549; assay: Potency index, ratio of chlorambucil to ratio of test compound for induction of apoptosis in human A549 cells; type: functional
[8] = target: T1, Tyrosinase; assay: Inhibition of mushroom tyrosinase using L-dopa as substrate incubated for 30 mins by spectrophotometric method
[9] = Lipophilicity, chromatographic lipophilicity index of the compound in methanol by UPLC-MS/MS; type: physicochemical
[10] = tested on: MCF7; assay: Antiproliferative activity against human MCF7 cells reduction in cell viability relative to control; type: functional
[11] = tested on: HL-60; assay: Antiproliferative activity against human HL60 cells incubated for 48 hrs by MTS assay; type: functional, cell-based; conditions: HL-60, 48 h
[12] = tested on: MCF7; assay: Antiproliferative activity against human MCF7 cells reduction in cell viability; type: functional, cell-based
[13] = tested on: A549; assay: Potency index, ratio of camptothecin to ratio of test compound for induction of apoptosis in human A549 cells; type: functional
[14] = target: T2, Tyrosinase (Agaricus bisporus); assay: Ratio of IC50 for kojic acid to IC50 for test compound for inhibition of mushroom tyrosinase using L-dopa as substrate incubated for 30 mins by spectrophotometric method
[15] = target: T2, Tyrosinase (Agaricus bisporus); assay: Ratio of IC50 for ascorbic acid to IC50 for test compound for inhibition of mushroom tyrosinase using L-dopa as substrate incubated for 30 mins by spectrophotometric method
[16] = target: T2, Tyrosinase (Agaricus bisporus); assay: Inhibition of mushroom tyrosinase assessed as reduction in peak intensity at 15 mM using L-dopa as substrate incubated for 30 mins by UV-vis spectra analysis
[17] = target: T2, Tyrosinase (Agaricus bisporus); assay: Inhibition of mushroom tyrosinase assessed as reduction in peak intensity at 25 mM using L-dopa as substrate incubated for 30 mins by UV-vis spectra analysis
[18] = tested on: HCT-116; assay: Antiproliferative activity against human HCT116 cells by MTT assay; type: functional, cell-based
[19] = compound: CN1[C@@H]2CC[C@H]1C/C(=N/Nc1nc(-c3ccc(Br)cc3)cs1)C2; assay: (§1) Noncompetitive-inhibition of mushroom tyrosinase assessed as Vmax at 0.1 to 0.25 mM using 0.1 to 0.25 mM L-dopa as substrate incubated for 20 mins by Lineweaver-Burk double reciprocal plot analysis; conditions: Agaricus bisporus
[20] = compound: CN1[C@@H]2CC[C@H]1C/C(=N/Nc1nc(-c3ccc(C(F)(F)F)cc3)cs1)C2; assay: as §1; conditions: Agaricus bisporus
[21] = compound: CN1[C@@H]2CC[C@H]1C/C(=N/Nc1nc(-c3ccc(Cl)c(Cl)c3)cs1)C2; assay: as §1; conditions: Agaricus bisporus
[22] = compound: CN1[C@@H]2CC[C@H]1C/C(=N/Nc1nc(-c3ccc(Cl)cc3)cs1)C2; assay: as §1; conditions: Agaricus bisporus
[23] = compound: CN1[C@@H]2CC[C@H]1C/C(=N/Nc1nc(-c3ccc(Cl)cc3Cl)cs1)C2; assay: as §1; conditions: Agaricus bisporus
[24] = compound: CN1[C@@H]2CC[C@H]1C/C(=N/Nc1nc(-c3ccc(F)cc3)cs1)C2; assay: as §1; conditions: Agaricus bisporus
[25] = compound: CN1[C@@H]2CC[C@H]1C/C(=N/Nc1nc(-c3ccc(N=[N+]=[N-])cc3)cs1)C2; assay: as §1; conditions: Agaricus bisporus
[26] = compound: Cc1ccc(-c2csc(N/N=C3\C[C@H]4CC[C@@H](C3)N4C)n2)cc1; assay: as §1; conditions: Agaricus bisporus
[27] = compound: CN1[C@@H]2CC[C@H]1C/C(=N/Nc1nc(-c3ccc(Br)cc3)cs1)C2; assay: (§2) Noncompetitive-inhibition of mushroom tyrosinase assessed as Km at 0.1 to 0.25 mM using 0.1 to 0.25 mM L-dopa as substrate incubated for 20 mins by Lineweaver-Burk double reciprocal plot analysis; conditions: Agaricus bisporus
[28] = compound: CN1[C@@H]2CC[C@H]1C/C(=N/Nc1nc(-c3ccc(Cl)c(Cl)c3)cs1)C2; assay: as §2; conditions: Agaricus bisporus
[29] = compound: CN1[C@@H]2CC[C@H]1C/C(=N/Nc1nc(-c3ccc(Cl)cc3)cs1)C2; assay: as §2; conditions: Agaricus bisporus
[30] = compound: CN1[C@@H]2CC[C@H]1C/C(=N/Nc1nc(-c3ccc(Cl)cc3Cl)cs1)C2; assay: as §2; conditions: Agaricus bisporus
[31] = compound: CN1[C@@H]2CC[C@H]1C/C(=N/Nc1nc(-c3ccc(N=[N+]=[N-])cc3)cs1)C2; assay: as §2; conditions: Agaricus bisporus

| Molecule | IC50 [1] | IC50 [2] | IC50 [3] | IC50 [4] | IC50 [5] | IC50 [8] | logKw [9] | further results |
| --- | --- | --- | --- | --- | --- | --- | --- | --- |
| ClCCN(CCCl)c1ccc(/C=N/Nc2nc(-c3ccc(Br)cc3)cs2)cc1 | 1.27 µM |  |  |  |  |  |  |  |
| O=C(O)CCCc1ccc(N(CCCl)CCCl)cc1 [CHLORAMBUCIL] | 8.55 µM | 72.8 µM | 69.3 µM | 12.6 µM | 69.7 µM |  |  |  |
| CN1[C@@H]2CC[C@H]1C/C(=N/Nc1nc(-c3ccc(Br)cc3)cs1)C2 | 8.36 µM | 8.15 µM | 7.67 µM | 5.44 µM | 8.18 µM | 85 µM | -3.066 | fold change (FC) [6]: 3 - 5; Ratio [7]: 3 - 5 |
| CN1[C@@H]2CC[C@H]1CC(=O)C2 |  |  |  |  |  |  |  | inhibition (INH) [10]: 26.98% |
| CN1[C@@H]2CC[C@H]1/C(=C\c1cccc(Br)c1)C(=O)/C2=C/c1cccc(Br)c1 |  |  |  |  |  |  |  | IC50 [11]: 3.39 µM; IC50 [12]: 13.1 µM |
| C/C(=N\Nc1nc(-c2ccc(Cl)c(Cl)c2)cs1)c1ccc(Nc2nc(N)nc(N)n2)cc1 | 3.56 µM |  |  |  |  |  |  | IC50 [12]: 7.59 µM |
| CN1[C@@H]2CC[C@H]1C/C(=N/Nc1nc(-c3ccc(Cl)c(Cl)c3)cs1)C2 | 8.29 µM | 7.89 µM | 7.19 µM | 5.43 µM | 8.58 µM | 3.22 µM | -4.024 | fold change (FC) [6]: 25; Ratio [13]: 2; Ratio [7]: 18; Ratio IC50 [14]: 22; Ratio IC50 [15]: 120; inhibition [16]: Active |
| CN1[C@@H]2CC[C@H]1C/C(=N/Nc1nc(-c3ccc(N=[N+]=[N-])cc3)cs1)C2 | 9.87 µM | 11 µM | 8.94 µM | 5.91 µM | 9.05 µM | 72.3 µM | -3.151 | Activity [6]: inactive |
| CN1[C@@H]2CC[C@H]1C/C(=N/Nc1nc(-c3ccc(Cl)cc3Cl)cs1)C2 | 6.82 µM | 7.47 µM | 7.05 µM | 5.48 µM | 8.16 µM | 3.51 µM | -3.79 | fold change (FC) [6]: 3 - 5; Ratio [7]: 3 - 5; Ratio IC50 [14]: 22; Ratio IC50 [15]: 120; inhibition [17]: Active |
| CN1[C@@H]2CC[C@H]1C/C(=N/Nc1nc(-c3ccc(F)cc3)cs1)C2 | 13.7 µM | 42.8 µM | 19.2 µM | > 15.1 µM | 19.1 µM | 123 µM | -3.058 | Activity [6]: inactive |
| CN1[C@@H]2CC[C@H]1C/C(=N/Nc1nc(-c3ccc(Cl)cc3)cs1)C2 | 9.37 µM | 9.48 µM | 9.08 µM | > 14.4 µM | 9.2 µM | 133 µM | -2.844 | Activity [6]: inactive |
| CCN1[C@@H]2CC[C@H]1/C(=C\c1ccc(OC)c(OC)c1)C(=O)/C2=C/c1ccc(OC)c(OC)c1 |  |  |  |  |  |  |  | IC50 [18]: 0.01 µM |
| CN1[C@@H]2CC[C@H]1C/C(=N/Nc1nc(-c3ccc(C(F)(F)F)cc3)cs1)C2 | 6.68 µM | 7.54 µM | 6.02 µM | 5.86 µM | 8.41 µM | 33.7 µM | -3.25 | fold change (FC) [6]: 3 - 5; Ratio [7]: 3 - 5 |
| Cc1ccc(-c2csc(N/N=C3\C[C@H]4CC[C@@H](C3)N4C)n2)cc1 | 10.1 µM | 17.3 µM | 11.1 µM | 10.6 µM | 10.2 µM | 101 µM | -2.654 | Activity [6]: inactive |
| B1 |  |  |  |  |  |  |  | Vmax [19]: 2.53 abs/min; Vmax [20]: -12.8 abs/min; Vmax [21]: 5.59 abs/min; Vmax [22]: 6.24 abs/min; Vmax [23]: 0.0126 abs/min; Vmax [24]: -1.58 abs/min; Vmax [25]: 5.05 abs/min; Vmax [26]: -16.5 abs/min; Km [27]: 184 µM; Km [28]: 180 µM; Km [29]: 360 µM; Km [30]: 0.278 µM; Km [31]: 466 µM |
